According to patent US10117430B2, “Malononitrile compounds for controlling animal pests” (BASF SE, priority 2012, dated 2018):

Tests used:
Type in all cases: in vivo
[1] = test system: Southern Armyworm (Spodoptera eridania); test: B.6 Southern armyworm test on sprayed lima bean plants; conditions: 96 h, 500 ppm, in comparison with untreated controls, 4 days after treatment
How it was run: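 Lima bean plants at the 1st true leaf stage were sprayed with cyclohexanone-based solutions diluted in 50% acetone/water with 0.01% nonionic surfactant. Once dry, plants were bagged with 10–11 larvae and held at 25 °C and 20–40% RH. Mortality and reduced feeding were scored at 4 days against untreated plants.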

[2] = test system: Green Peach Aphid (Myzus persicae); test: B.3 Green peach aphid systemic test, artificial diet under membrane; conditions: 72 h, concentration of the test solution 2500 mg/L, 3 days
How it was run: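 Systemic uptake from artificial liquid diet beneath a membrane, compound formulated in 75% water/25% DMSO and added to diet at several concentrations, two replicates. 5-8 adult aphids fed on treated diet for 3 days at about 23±1° C. and 50±5% RH. Mortality and fecundity scored visually.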

[3] = test system: Green Peach Aphid (Myzus persicae); test: B.13 Green peach aphid test on sprayed bell pepper plants; conditions: 120 h, in comparison with untreated controls, after 5 days
Description: B.13 Green Peach Aphid (Myzus persicae)
The active compounds were formulated in cyclohexanone as a 10,000 ppm solution supplied in tubes. The tubes were inserted into an automated electrostatic sprayer equipped with an atomizing nozzle and they served as stock solutions for which lower dilutions were made in 50% acetone:50% water (v/v). A nonionic surfactant (Kinetic®) was included in the solution at a volume of 0.01% (v/v). Bell pepper plants at the first true-leaf stage were infested prior to treatment by placing heavily infested leaves from the main colony on top of the treatment plants. Aphids were allowed to transfer overnight to accomplish an infestation of 30-50 aphids per plant and the host leaves were removed. The infested plants were then sprayed by an automated electrostatic plant sprayer equipped with an atomizing spray nozzle. The plants were dried in the sprayer fume hood, removed, and then maintained in a growth room under fluorescent lighting in a 24-hr photoperiod at about 25° C. and about 20-40% relative humidity. Aphid mortality on the treated plants, relative to mortality on untreated control plants, was determined after 5 days.

[4] = test system: Rice brown plant hopper (Nilaparvata lugens); test: B.11 Rice brown plant hopper test on sprayed rice seedlings; conditions: in comparison with untreated controls, after 72 hours
How it was run: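 Compounds formulated in 50:50 acetone:water with 0.1% vol/vol surfactant and sprayed onto potted rice seedlings. Air-dried plants were caged, infested with 10 adults and held at about 28-29 °C, 50-60% RH. Percent mortality scored after 72 hours.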

[5] = test system: Silverleaf Whitefly (Bemisia argentifolii); test: B.5 Silverleaf whitefly test on sprayed cotton plants; conditions: 72 h, in comparison with untreated controls, 3 days after treatment
How it was run: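 Cotyledon-stage cotton plants were electrostatically sprayed with compound diluted from a 10,000 ppm cyclohexanone stock into 50% acetone/water with 0.01% nonionic surfactant. After drying, 10–12 adult whiteflies (3–5 days old) were released onto each plant. Mortality was scored after 3 days at 25 °C and 20–40% RH against untreated plants.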

[6] = test system: Boll Weevil (Anthonomus grandis); test: B.9 Boll weevil microtiter diet test, egg and larval mortality; conditions: 120 h, in comparison with untreated controls, egg and larval mortality after 5 days
How it was run: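 Insect diet carrying 20-30 A. grandis eggs per well was sprayed with compounds formulated in 75% water/25% DMSO, at various concentrations with two replicates. Plates were held at about 23±1° C and 50±5% RH for 5 days. Egg and larval mortality were then scored visually.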

[7] = test system: Vetch Aphid (Megoura viciae); test: B.7 Vetch aphid test on broad bean leaf disks; conditions: foliar, 120 h, in comparison with untreated controls, 5 days
How it was run: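 Broad bean leaf disks sprayed with compounds in 25% DMSO/75% water at several concentrations, two replicates, then air-dried. Infested with 5-8 adult Megoura viciae and held 5 days at about 23±1 °C and 50±5% RH. Mortality and fecundity scored visually.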

N#CC(C#N)(Cc1ccc(C(F)(F)F)nc1)c1cc(F)cc(F)c1 [II-34]
≥ 75%: mortality at 500 ppm [1] | mortality at 2500 µg/mL [2] | mortality at 300 ppm [3] | mortality at 300 ppm [4] | mortality at 500 ppm [5] | mortality at 2500 ppm [6] | mortality at 2500 ppm [7]
